Test results from patent US4410516A, “1-N(αHydroxy-ω-aminoalkanoyl) derivatives of 5,3',4'-trideoxy- or 5,3', 4'-trideoxy-6'-N- methyl- or 5, 3', 4',6"-tetradeoxykannamyci B and production thereof” (Zaidan Hojin Biseibutsu Kagaku Kenkyu Kai, priority 1981, dated 1983).
Converted amounts (≈) assume the structure as drawn. Like-named read-outs stand apart in the source and are kept apart here.

Key:
[1] = test system: Pseudomonas aeruginosa No. 12; test: Minimum inhibitory concentration, serial dilution on nutrient agar; type: cell-based; details: NO.12, 18 h
[2] = test system: Providencia 2991; test: as above; type: cell-based; details: 37° C., 18 hours incubation
[3] = test system: Escherichia coli K-12 LA 290 R55; test: as above; type: cell-based; details: K12LA290R55, 18 h
[4] = test system: Serratia marcescens; test: as above; type: cell-based; details: 37° C., 18 hours incubation
[5] = test system: Micrococcus flavus FDA 16; test: as above; type: cell-based; details: FDA16, 18 h
[6] = test system: Klebsiella pneumoniae 22 #3038; test: as above; type: cell-based; details: 18 h
[7] = test system: Pseudomonas aeruginosa GN315; test: as above; type: cell-based; details: GN315, 18 h
[8] = test system: Pseudomonas aeruginosa ROS134/PU21; test: as above; type: cell-based; details: ROS134/PU21, 18 h
[9] = test system: Bacillus subtilis NRRL B-558; test: as above; type: cell-based; details: NRRLB558, 37° C., 18 hours incubation
[10] = test system: Escherichia coli K-12 R 388; test: as above; type: cell-based; details: K12R388, 18 h
[11] = test system: Klebsiella pneumoniae PCI 602; test: as above; type: cell-based; details: PCI602, 18 h
[12] = test system: Proteus rettgeri GN311; test: as above; type: cell-based; details: Providencia rettgeri, 37° C., 18 hours incubation
[13] = test system: Escherichia coli JR255; test: as above; type: cell-based; details: JR255, 18 h
[14] = Acute toxicity by intravenous injection in mice; details: mouse, in vivo
[15] = test system: Staphylococcus aureus 209P; test: Minimum inhibitory concentration, serial dilution on nutrient agar; type: cell-based; details: 37° C., 18 hours incubation
[16] = test system: Pseudomonas aeruginosa K-Ps102; test: as above; type: cell-based; details: KPS102, 18 h
[17] = test system: Mycobacterium smegmatis ATCC 607; test: as above; type: cell-based; details: Mycolicibacterium smegmatis, ATCC607; nutrient agar, 37° C., 18 hours incubation; read-out: MIC
[18] = test system: Escherichia coli K-12 ML 1629; test: as above; type: cell-based; details: K12ML1629, 18 h
[19] = test system: Pseudomonas aeruginosa 21-75; test: as above; type: cell-based; details: 2175, 37° C., 18 hours incubation
[20] = test system: Escherichia coli W677; test: as above; type: cell-based; details: W677, 18 h
[21] = test system: Proteus rettgeri GN466; test: as above; type: cell-based; details: Providencia rettgeri
[22] = test system: Escherichia coli K-12 LA 290 R64; test: as above; type: cell-based; details: K12LA290R64, 18 h
[23] = test system: Pseudomonas maltophilia GN907; test: as above; type: cell-based; details: Stenotrophomonas maltophilia, 37° C., 18 hours incubation
[24] = test system: Pseudomonas aeruginosa B-13; test: as above; type: cell-based; details: B13, 37° C., 18 hours incubation
[25] = test system: Shigella flexneri 4b JS11811; test: as above; type: cell-based; details: 4BJS11811, 37° C., 18 hours incubation
From the text: (§1) The minimum inhibitory concentration (mcg/ml) of 1-N-[(S)-4-amino-2-hydroxybutyryl]-5,3',4'-trideoxykanamycin B (abbreviated as AHB-trideoxyKMB), 1-N-[(RS)-3-amino-2-hydroxypropionyl]-5,3',4'-trideoxykanamycin B (abbreviated as AHP-trideoxy-KMB) and 1-N-[(S)-4-amino-2-hydroxybutyryl]-5,3',4',6"-tetradeoxykanamycin B (abbreviated as AHB-tetradeoxyKMB) of the formula (II) according to this invention as well as of the new compound 5,3',4',6"-tetradeoxykanamycin B (abbreviated as tetradeoxyKMB) of the formula (III) according to this invention against various microorganisms were determined according to serial dilution method on a nutrient agar medium at 37° C., the estimation being made after 18 hours incubation. For comparison purpose, the minimum inhibitory concentrations of habekacin were also determined in the same manner as stated above.
(§2) The minimum inhibitory concentrations (mcg/ml) of 1-N-[(S)-4-amino-2-hydroxybutyryl]-5,3',4'-trideoxy-6'-N-methylkanamycin B (abbreviated as AHB-trideoxyMKMB), 1-N-[(RS)-3-amino-2-hydroxypropionyl]-5,3',4'-trideoxy-6'-N-methylkanamycin B (abbreviated as AHP-trideoxyMKMB) and 1-N-[(S)-5-amino-2-hydroxyvaleryl]-5,3',4'-trideoxy-6'-N-methylkanamycin B (abbreviated as AHV-trideoxyMKMB) of the formula (IV) according to this invention as well as of the new compound 5,3',4'-trideoxy-6'-N-methylkanamycin B (abbreviated as trideoxyMKMB) of the formula (V) according to this invention against various microorganisms were determined according to serial dilution method on a nutrient agar medium at 37° C., the estimation being made after 18 hours incubation. For comparison purpose, the minimum inhibitory concentrations of 1-N-[(S)-4-amino-2-hydroxybutyryl]-3',4'-dideoxykanamycin B (ie. habekacin) were also determined in the same manner as stated above.

[26] = test system: Shigella sonnei JS11746; test: as above; type: cell-based; details: 37° C., 18 hours incubation
From the text: as §1, §2

[27] = test system: Escherichia coli K-12 J5R 11-2; test: as above; type: cell-based; details: K12J5R112, 37° C., 18 hours incubation
From the text: as §1, §2

[28] = test system: Escherichia coli K-12 C 600R/35; test: as above; type: cell-based; details: K12C600R/35, 37° C., 18 hours incubation
From the text: as §1, §2

[29] = test system: Escherichia coli K-12 ML 1630; test: as above; type: cell-based; details: K12ML1630, 37° C., 18 hours incubation
From the text: as §1, §2

[30] = test system: Escherichia coli K-12 R5; test: as above; type: cell-based; details: K12R5, 18 h

Row | Compound | MIC [1] [µg/mL] | MIC [2] [µg/mL] | MIC [3] [µg/mL] | MIC [4] [µg/mL] | MIC [5] [µg/mL] | MIC [6] [µg/mL] | MIC [7] [µg/mL] | MIC [8] [µg/mL] | MIC [9] [µg/mL] | MIC [10] [µg/mL] | MIC [11] [µg/mL] | MIC [12] [µg/mL] | MIC [13] [µg/mL] | LD50 [14] [mg/kg] | MIC [15] [µg/mL] | MIC [16] [µg/mL] | MIC [17] [µg/mL] | MIC [18] [µg/mL] | MIC [19] [µg/mL] | MIC [20] [µg/mL] | further results
1 | CNC[C@@H]1CC[C@@H](N)[C@@H](O[C@H]2C[C@@H](O[C@H]3O[C@H](CO)[C@@H](O)[C@H](N)[C@H]3O)[C@H](NC(=O)C(O)CN)C[C@@H]2N)O1 (stereo partly drawn) [AHP-trideoxyMKMB, 1-N-[(RS)-3-amino-2-hydroxypropionyl]-5,3',4'-trideoxy-6'-N-methylkanamycin B] | 3.13 (≈ 5.83 µM) | 50 (≈ 93.2 µM) | 6.25 (≈ 11.6 µM) | 12.5 (≈ 23.3 µM) | 3.13 (≈ 5.83 µM) | 3.13 (≈ 5.83 µM) | 3.13 (≈ 5.83 µM) | 50 (≈ 93.2 µM) | 0.39 (≈ 0.727 µM) | 1.56 (≈ 2.91 µM) | 3.13 (≈ 5.83 µM) | 25 (≈ 46.6 µM) | 3.13 (≈ 5.83 µM) | 50 to 100 | 0.39 (≈ 0.727 µM) | 3.13 (≈ 5.83 µM) | 0.39 (≈ 0.727 µM) | 3.13 (≈ 5.83 µM) | 25 (≈ 46.6 µM) | 3.13 (≈ 5.83 µM) | MIC ([21]; GN466, nutrient agar, 37° C., 18 hours incubation, read-out: MIC): 12.5 µg/mL (≈ 23.3 µM); MIC [22]: 3.13 µg/mL (≈ 5.83 µM); MIC [23]: > 100 µg/mL; MIC [24]: 25 µg/mL (≈ 46.6 µM); MIC [25]: 3.13 µg/mL (≈ 5.83 µM); MIC [26]: 6.25 µg/mL (≈ 11.6 µM); MIC [27]: 3.13 µg/mL (≈ 5.83 µM); MIC [28]: 1.56 µg/mL (≈ 2.91 µM); MIC [29]: 3.13 µg/mL (≈ 5.83 µM); MIC [30]: 12.5 µg/mL (≈ 23.3 µM)
2 | CNC[C@@H]1CC[C@@H](N)[C@@H](O[C@H]2C[C@@H](O[C@H]3O[C@H](CO)[C@@H](O)[C@H](N)[C@H]3O)[C@H](NC(=O)[C@@H](O)CCCN)C[C@@H]2N)O1 [AHV-trideoxyMKMB, 1-N-[(S)-5-amino-2-hydroxyvaleryl]-5,3',4'-trideoxy-6'-N-methylkanamycin B] | 3.13 (≈ 5.54 µM) | 25 (≈ 44.3 µM) | 3.13 (≈ 5.54 µM) | 12.5 (≈ 22.1 µM) | 3.13 (≈ 5.54 µM) | 3.13 (≈ 5.54 µM) | 3.13 (≈ 5.54 µM) | 50 (≈ 88.5 µM) | < 0.2 | 1.56 (≈ 2.76 µM) | 1.56 (≈ 2.76 µM) | 100 (≈ 177 µM) | 1.56 (≈ 2.76 µM) | 50 to 100 | 0.2 (≈ 0.354 µM) | 1.56 (≈ 2.76 µM) | 0.39 (≈ 0.691 µM) | 3.13 (≈ 5.54 µM) | 12.5 (≈ 22.1 µM) | 1.56 (≈ 2.76 µM) | MIC ([21]; GN466, 18 h): 6.25 µg/mL (≈ 11.1 µM); MIC [22]: 1.56 µg/mL (≈ 2.76 µM); MIC [23]: > 100 µg/mL; MIC [24]: 12.5 µg/mL (≈ 22.1 µM); MIC [25]: 1.56 µg/mL (≈ 2.76 µM); MIC [26]: 6.25 µg/mL (≈ 11.1 µM); MIC [27]: 3.13 µg/mL (≈ 5.54 µM); MIC [28]: 1.56 µg/mL (≈ 2.76 µM); MIC [29]: 3.13 µg/mL (≈ 5.54 µM); MIC [30]: 6.25 µg/mL (≈ 11.1 µM)
